Earlier results, collected in patent US7756644B2, “System and method for automated selection of T-cell epitopes” (priority 2005, dated 2010).

System: memory T-cells isolated from HLA-B7-positive EBV-seropositive individuals
Conditions: PNAS 1999

| Sequence | recognition by memory T-cells / immunogenicity |
| --- | --- |
| QPRAPIRPI (EBNA 3C.881 peptide from Epstein-Barr virus) | is not |
| RPPIFIRRL [EBNA 3A.379] | recognized |
